According to the NIST ThermoML archive (doi:10.1021/je0301040):
Numbers after ± are expanded uncertainties.

Test: xn = mol fraction of the nth substance listed

FC(Cl)(Cl)Cl [trichlorofluoromethane] + FC(F)Cl
Settings | mass density [kg/m3]
424.96 K, 293.85 kPa, Fluid (supercritical or subcritical phases), Burnett expansion method, x1 = 0.832 | 11.0367 ± 0.22
424.96 K, 373.9 kPa, Fluid (supercritical or subcritical phases), Burnett expansion method, x1 = 0.832 | 14.1459 ± 0.28
424.96 K, 418.92 kPa, Fluid (supercritical or subcritical phases), Burnett expansion method, x1 = 0.832 | 15.9304 ± 0.32
424.96 K, 445.3 kPa, Gas, isochoric method, x1 = 0.832 | 131.354 ± 0.093
424.96 K, 567.37 kPa, Fluid (supercritical or subcritical phases), Burnett expansion method, x1 = 0.832 | 21.9341 ± 0.44
424.96 K, 662.1 kPa, Gas, isochoric method, x1 = 0.832 | 200.808 ± 0.14
424.96 K, 663.7 kPa, Gas, isochoric method, x1 = 0.832 | 200.808 ± 0.14
424.96 K, 715.19 kPa, Fluid (supercritical or subcritical phases), Burnett expansion method, x1 = 0.832 | 28.1109 ± 0.56
424.96 K, 797.38 kPa, Fluid (supercritical or subcritical phases), Burnett expansion method, x1 = 0.832 | 31.6606 ± 0.63
424.96 K, 967.2 kPa, Gas, isochoric method, x1 = 0.832 | 303.998 ± 0.094
424.96 K, 969 kPa, Gas, isochoric method, x1 = 0.832 | 303.998 ± 0.094
424.96 K, 1086 kPa, Fluid (supercritical or subcritical phases), Burnett expansion method, x1 = 0.832 | 44.6324 ± 0.9
424.96 K, 1298.4 kPa, Gas, isochoric method, x1 = 0.832 | 426.053 ± 0.33
424.96 K, 1299.4 kPa, Gas, isochoric method, x1 = 0.832 | 426.053 ± 0.33
424.96 K, 1617.2 kPa, Gas, isochoric method, x1 = 0.832 | 556.221 ± 0.17
424.96 K, 1619.2 kPa, Gas, isochoric method, x1 = 0.832 | 556.221 ± 0.17
424.96 K, 3854.3 kPa, Liquid, Pycnometric method, x1 = 0.8336 | 1012.94 ± 3.5
424.96 K, 4517.9 kPa, Liquid, Pycnometric method, x1 = 0.8336 | 1028.76 ± 3.4
424.96 K, 7331.5 kPa, Liquid, Pycnometric method, x1 = 0.8336 | 1077.17 ± 2.6
424.96 K, 20744 kPa, Liquid, Pycnometric method, x1 = 0.8336 | 1193.05 ± 1.9
424.96 K, 49662 kPa, Liquid, Pycnometric method, x1 = 0.8336 | 1310.9 ± 1.5
424.96 K, 65344 kPa, Liquid, Pycnometric method, x1 = 0.8336 | 1352.8 ± 1.5
424.97 K, 150.03 kPa, Fluid (supercritical or subcritical phases), Burnett expansion method, x1 = 0.832 | 5.5536 ± 0.11
424.97 K, 153.48 kPa, Fluid (supercritical or subcritical phases), Burnett expansion method, x1 = 0.832 | 5.6866 ± 0.11
424.97 K, 215.05 kPa, Fluid (supercritical or subcritical phases), Burnett expansion method, x1 = 0.832 | 8.0157 ± 0.16
424.97 K, 300.89 kPa, Fluid (supercritical or subcritical phases), Burnett expansion method, x1 = 0.832 | 11.3011 ± 0.23
424.97 K, 409.41 kPa, Fluid (supercritical or subcritical phases), Burnett expansion method, x1 = 0.832 | 15.5588 ± 0.31
424.97 K, 444.8 kPa, Gas, isochoric method, x1 = 0.832 | 131.354 ± 0.093
424.97 K, 518.76 kPa, Fluid (supercritical or subcritical phases), Burnett expansion method, x1 = 0.832 | 19.9414 ± 0.4
424.97 K, 580.12 kPa, Fluid (supercritical or subcritical phases), Burnett expansion method, x1 = 0.832 | 22.4579 ± 0.45
424.97 K, 977.19 kPa, Fluid (supercritical or subcritical phases), Burnett expansion method, x1 = 0.832 | 39.6298 ± 0.8
424.97 K, 1317.5 kPa, Fluid (supercritical or subcritical phases), Burnett expansion method, x1 = 0.832 | 55.8677 ± 1.1
424.97 K, 3592.7 kPa, Liquid, Pycnometric method, x1 = 0.8336 | 1005.84 ± 3.6
424.97 K, 4190.2 kPa, Liquid, Pycnometric method, x1 = 0.8336 | 1021.29 ± 3.4
424.97 K, 4853 kPa, Liquid, Pycnometric method, x1 = 0.8336 | 1035.91 ± 3
424.97 K, 5457.4 kPa, Liquid, Pycnometric method, x1 = 0.8336 | 1047.58 ± 3
424.97 K, 6169.4 kPa, Liquid, Pycnometric method, x1 = 0.8336 | 1059.78 ± 3
424.97 K, 14203 kPa, Liquid, Pycnometric method, x1 = 0.8336 | 1148.26 ± 2.2
424.97 K, 27900 kPa, Liquid, Pycnometric method, x1 = 0.8336 | 1230.65 ± 1.7
424.97 K, 35700 kPa, Liquid, Pycnometric method, x1 = 0.8336 | 1263.74 ± 1.6
424.97 K, 42738 kPa, Liquid, Pycnometric method, x1 = 0.8336 | 1289.02 ± 1.5
424.97 K, 56282 kPa, Liquid, Pycnometric method, x1 = 0.8336 | 1329.7 ± 1.5
424.97 K, 61980 kPa, Liquid, Pycnometric method, x1 = 0.8336 | 1344.58 ± 1.4
429.96 K, 2000.6 kPa, Gas, isochoric method, x1 = 0.832 | 715.595 ± 0.22
429.96 K, 2000.8 kPa, Gas, isochoric method, x1 = 0.832 | 715.595 ± 0.66
429.96 K, 2002.4 kPa, Gas, isochoric method, x1 = 0.832 | 715.595 ± 0.22
474.95 K, 4750 kPa, Fluid (supercritical or subcritical phases), Burnett expansion method, x1 = 0.832 | 271.514 ± 5.5
474.97 K, 1108 kPa, Fluid (supercritical or subcritical phases), Burnett expansion method, x1 = 0.832 | 39.0371 ± 0.78
474.98 K, 322.47 kPa, Fluid (supercritical or subcritical phases), Burnett expansion method, x1 = 0.832 | 10.7116 ± 0.21
474.98 K, 601.7 kPa, Fluid (supercritical or subcritical phases), Burnett expansion method, x1 = 0.832 | 20.4396 ± 0.41
474.98 K, 1965.5 kPa, Fluid (supercritical or subcritical phases), Burnett expansion method, x1 = 0.832 | 74.5021 ± 1.5
474.98 K, 1995.2 kPa, Fluid (supercritical or subcritical phases), Burnett expansion method, x1 = 0.832 | 75.9597 ± 1.5
474.98 K, 3255.8 kPa, Fluid (supercritical or subcritical phases), Burnett expansion method, x1 = 0.832 | 142.18 ± 2.9
474.98 K, 3296.6 kPa, Fluid (supercritical or subcritical phases), Burnett expansion method, x1 = 0.832 | 144.503 ± 2.9
474.98 K, 4786.8 kPa, Fluid (supercritical or subcritical phases), Burnett expansion method, x1 = 0.832 | 274.877 ± 5.5
474.98 K, 5920.1 kPa, Fluid (supercritical or subcritical phases), Burnett expansion method, x1 = 0.832 | 522.524 ± 11
474.98 K, 13635 kPa, Fluid (supercritical or subcritical phases), Burnett expansion method, x1 = 0.832 | 993.788 ± 20
474.99 K, 590.67 kPa, Fluid (supercritical or subcritical phases), Burnett expansion method, x1 = 0.832 | 20.1833 ± 0.4
474.99 K, 1081.5 kPa, Fluid (supercritical or subcritical phases), Burnett expansion method, x1 = 0.832 | 38.4124 ± 0.77
474.99 K, 1126.1 kPa, Fluid (supercritical or subcritical phases), Burnett expansion method, x1 = 0.832 | 39.9341 ± 0.8
474.99 K, 1933.1 kPa, Fluid (supercritical or subcritical phases), Burnett expansion method, x1 = 0.832 | 73.0924 ± 1.5
474.99 K, 3211.7 kPa, Fluid (supercritical or subcritical phases), Burnett expansion method, x1 = 0.832 | 139.089 ± 2.8
474.99 K, 4708.1 kPa, Fluid (supercritical or subcritical phases), Burnett expansion method, x1 = 0.832 | 264.786 ± 5.4
475 K, 5875.1 kPa, Fluid (supercritical or subcritical phases), Burnett expansion method, x1 = 0.832 | 503.942 ± 11
475 K, 5905.8 kPa, Fluid (supercritical or subcritical phases), Burnett expansion method, x1 = 0.832 | 518.038 ± 11
475 K, 12413 kPa, Fluid (supercritical or subcritical phases), Burnett expansion method, x1 = 0.832 | 958.868 ± 19
475.01 K, 13484 kPa, Fluid (supercritical or subcritical phases), Burnett expansion method, x1 = 0.832 | 988.822 ± 20
